Positions of bridges follow the written chain, without caps; N, C: chain ends. Non-standard residues stand in square brackets, D forms with d. No end group written: not given here. mini‑PEG = diethylene glycol
Test system: hypoxia induced pulmonary hypertensive mice
Assay: Hemodynamic analysis (mPAP, RVSP by catheter) in hypoxia induced PH mice
Format: in vivo, C57BL/6 mice
Settings: for mPAP (mmHg) / RVSP (mmHg): Mean ± SEM; for % Improvement (reduction in pressure/increase), RVSP / % Improvement (reduction in pressure/increase), mPAP: vs hypoxia w/o treatment; for % Reduction RVSP / % Reduction mPAP: Table 3, (negative control mmHg-netrin-1 compound)/(negative control mmHg); for mean pulmonary arterial pressure (mPAP) / right ventricular systolic pressure (RVSP): mice, 10% oxygen 21 days, 15 ng/day s.c. mini-osmotic pump, mean±SEM; for mean pulmonary arterial pressure (mPAP): hypoxia 40.54±4.473, normoxia 19.41±1.281; for right ventricular systolic pressure (RVSP): hypoxia 41.94±3.287, normoxia 32.20±1.884
Description: All animal experiments were approved by the Institutional Animal Care and Usage Committee at the University of California, Los Angeles (UCLA). […] groups of 9-12 weeks old male C57BL/6 mice (Charles River Laboratories, Wilmington, Mass.) were implanted using mini-osmotic pumps subcutaneously releasing the given netrin-1 compound (netrin-1, V1-9aa, V2-10aa, V3-11aa, V1P, V2P, V3P, V1S, V1T, V1D, V1C) at 15 ng/day, and the mice were housed under room air or 10% oxygen conditions in a normobaric chamber for 21 days. The hypoxic environment was maintained by continuous mixed gas flow (10% oxygen/90% nitrogen gas). The animals were fed and watered ad libitum, and cages were changed twice weekly. After the chamber was closed, the mixed gas was flushed to recover the hypoxic environment as quickly as possible. Animals were maintained at 20° C. with a 12:12-hour light-dark cycle. At the end of the treatment period, animals were anesthetized and hemodynamic analyses were performed by introducing 1.4 F catheter (Millar instruments, Houston, Tex.) into right ventricle and pulmonary artery. The right ventricular systolic blood pressure (RVSP) and the mean pulmonary arterial pressure (mPAP) were recorded using a Power Lab data acquisition system (ADInstruments Inc., CO).
All animal experiments were approved by the Institutional Animal Care and Usage Committee at the University of California, Los Angeles (UCLA). Eleven groups of 9-12 weeks old male C57BL/6 mice (Charles River Laboratories, Wilmington, Mass.) were implanted using mini-osmotic pumps subcutaneously releasing Netrin-1 derived peptides and modified peptides at 15 ng/day (Netrin-1, V1, V2, V3, V1P, V2P, V3P, V1S, V1T, V1D and V1C), and the mice were housed under room air or 10% oxygen conditions in a normobaric chamber for 21 days. The hypoxic environment was maintained by continuous mixed gas flow (10% oxygen/5% CO2 balanced with nitrogen gas). The animals were fed and watered ad libitum, and cages were changed twice weekly. After the chamber was closed, the mixed gas was flushed to recover the hypoxic environment as quickly as possible. Animals were maintained at 20° C. with a 12:12-hour light-dark cycle.
At the end of the treatment period, animals were anesthetized and hemodynamic analysis were performed by introducing 1.4 F catheter (Mikro-Tip® catheter-transducer; Model SPR-671, Millar instruments, Houston, Tex.) into both right and left ventricle and pulmonary artery. The right ventricular systolic blood pressure (RVSP), pulmonary arterial pressure (PAP), left ventricular systolic pressure (LVSP) and aortic pressure were recorded using a Power Lab data acquisition system (ADInstruments Inc., CO).

[1] = Table 2, n = 4-6, hypoxia w/o treatment 40.54 ± 4.473, normal control 19.41 ± 1.281
[2] = Table 2, n = 4-6, hypoxia w/o treatment 41.94 ± 3.281, normal control 32.20 ± 1.884
[3] = Table 2, printed over hypoxia-induced increase 9.74
[4] = Table 2, printed over hypoxia-induced increase 21.13
[5] = Table 1, n = 4-5, hypoxia w/o treatment 38.98 ± 1.747, normal control 32.20 ± 1.884
[6] = Table 1, n = 4-5, hypoxia w/o treatment 39.54 ± 5.341, normal control 19.41 ± 1.281
[7] = Table 1, hypoxia-induced increase 6.78
[8] = Table 1, hypoxia-induced increase 19.39

| Substance | mPAP (mmHg) [1] | RVSP (mmHg) [2] | reduction in pressure (of reduction in pressure/increase), RVSP [3] | reduction in pressure (of reduction in pressure/increase), mPAP [4] | % Improvement (reduction in pressure/increase), RVSP (Table 2) | % Improvement (reduction in pressure/increase), mPAP (Table 2) | % Reduction RVSP | % Reduction mPAP | mean pulmonary arterial pressure (mPAP) | right ventricular systolic pressure (RVSP) | RVSP (mmHg) [5] | mPAP (mmHg) [6] | reduction in pressure (of reduction in pressure/increase), RVSP [7] | reduction in pressure (of reduction in pressure/increase), mPAP [8] | % Improvement (reduction in pressure/increase), RVSP (Table 1) | % Improvement (reduction in pressure/increase), mPAP (Table 1) | attenuation (inhibition) of RVSP increase (hypoxia-induced RVSP increase) |
| --- | --- | --- | --- | --- | --- | --- | --- | --- | --- | --- | --- | --- | --- | --- | --- | --- | --- |
| (mini-PEG)-CDCRHNTAG ({mini‑PEG}-CDCRHNTAG; not fully specified (bridges); printed as (mini-PEG)-CDCRHNTAG; cysteine pairing not given here) [V1P] | 21.88 ± 3.020 mmHg | 30.95 ± 3.867 mmHg | > 9.74 | (18.66/21.13) | 100% | 88% | 26% | 46% | 21.88±3.020 mmHg | 30.95±3.876 mmHg | – | – | – | – | – | – | – |
| (mini-PEG)-CLNCRHNTAG ({mini‑PEG}-CLNCRHNTAG; cysteine pairing not given here) [V2P] | 27.39 ± 2.973 mmHg | 29.95 ± 1.661 mmHg | > 9.74 | (13.15/21.13) | 100% | 62% | 29% | 32% | 27.39±2.973 mmHg | 29.95±1.661 mmHg | – | – | – | – | – | – | – |
| (mini-PEG)-CPCKDGVTIGIT ({mini‑PEG}-CPCKDGVTIGIT; cysteine pairing not given here) [V3P] | 20.22 ± 1.304 mmHg | 29.27 ± 1.986 mmHg | > 9.74 | (20.32/21.13) | 100% | 96% | 30% | 50% | 20.22±1.304 mmHg | 29.27±1.986 mmHg | – | – | – | – | – | – | – |
| CDCRHNTAG [V1-9aa] (Peptide based on human Netrin-1 sequence) [304-312 aa of human netrin-1] | – | – | – | – | – | – | 19% | 40% | 23.83±5.149 mmHg | 31.50±3.321 mmHg | 31.50 ± 3.321 mmHg | 23.83 ± 5.149 mmHg | (>6.78/6.78) | (15.97/19.39) | 100% | 81% | – |
| CDCRHNTAG [V1C] (disulfide 1-3) | 17.76 ± 1.403 mmHg | 26.80 ± 3.051 mmHg | > 9.74 | (>21.32/21.13) | 100% | 100% | 36% | 56% | 17.76±1.403 mmHg | 26.80±3.051 mmHg | – | – | – | – | – | – | – |
| CLNCRHNTAG (Peptide based on human Netrin-1 sequence) [V2-10aa, 368-377 aa] | – | – | – | – | – | – | 15% | 35% | 25.74±3.788 mmHg | 33.10±1.044 mmHg | 33.10 ± 1.044 mmHg | 25.74 ± 3.788 mmHg | (5.88/6.78) | (13.8/19.39) | 87% | 71% | 91% |
| CPCKDGVTGIT (Peptide based on human Netrin-1 sequence) [V3-11aa, 423-433 aa] | – | – | – | – | – | – | 20% | 26% | 29.35±3.635 mmHg | 31.23±1.773 mmHg | 31.23 ± 1.773 mmHg | 29.35 ± 3.635 mmHg | (>6.78/6.78) | (10.19/19.39) | 100% | 53% | – |
| SDCRHNTAG (Peptide based on human Netrin-1 sequence) [V1S] | 16.58 ± 1.608 mmHg | 23.62 ± 0.518 mmHg | > 9.74 | (>21.32/21.13) | 100% | 100% | 44% | 59% | 16.58±1.608 mmHg | 23.62±0.518 mmHg | – | – | – | – | – | – | – |
| TDCRHNTAG (Peptide based on human Netrin-1 sequence) [V1T] | 24.52 ± 2.686 mmHg | 29.03 ± 2.960 mmHg | > 9.74 | (16.02/21.13) | 100% | 76% | 31% | 40% | 24.52±2.686 mmHg | 29.03±2.960 mmHg | – | – | – | – | – | – | – |
| dCDCRHNTAdG ([dC]DCRHNTAG; cysteine pairing not given here) [V1D] | 22.89 ± 3.237 mmHg | 29.41 ± 3.876 mmHg | > 9.74 | (17.65/21.13) | 100% | 84% | 30% | 44% | 22.89±3.237 mmHg | 29.41±3.876 mmHg | – | – | – | – | – | – | – |
